Laboratory results published in the supplement of paper PMC11451515.

Columns and labels:
Conditions in all cases: 48 h
NOMO1 [1] = assay: cell viability relative to DMSO control; higher = less cytotoxic
How it was run: (§1)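 Cells were incubated for 48 h at 37°C before CellTiter-Glo One luminescence was read. The cells were NOMO1 or SEM (500 cells/well) or P12-Ichikawa (1000 cells/well) leukemia cells, adapted for at least four passages in each medium and seeded in 1536-well plates (5 μl). Dosing used library compounds in DMSO applied by pin over 11 threefold points, 47 μM to 0.79 nM. Viability is the per-plate percentage of DMSO wells, with cell-free wells as background.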

P12-Ichikawa [2] = assay: as above
How it was run: as §1

SEM cells [3] = assay: as above
How it was run: as §1

NOMO1 [4] = assay: AUC of viability dose-response curve (% viability x log10 dose units); higher = less sensitive
How it was run: (§2)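 Area under the curve was integrated by trapezoidal rule from a log-logistic fit of normalised viability, with curves exceeding full viability scaled and quality-control failures removed. The fit had four parameters over log10 doses. Viability came from CellTiter-Glo One luminescence, normalised per plate to DMSO and cell-free wells, after leukemia cells adapted to each medium (500 or 1000 cells/well, 1536-well plates) were exposed to library compounds in DMSO for 48 h at 37°C. The 11 threefold doses ran from 47 μM to 0.79 nM.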

P12-Ichikawa [5] = assay: as above
How it was run: as §2

SEM cells [6] = assay: as above
How it was run: as §2

CC1(C)O[C@@H]2C[C@H]3[C@@H]4CCC5=CC(=O)C=C[C@]5(C)[C@H]4[C@@H](O)C[C@]3(C)[C@]2(C(=O)CO)O1
cell viability [%]
Conditions	NOMO1 [1]	P12-Ichikawa [2]	SEM cells [3]
HPLM + 10% dialyzed FBS, 0.000781 µM	95	100	74.9
HPLM + 10% dialyzed FBS, 0.00234 µM	92.4	104	34.7
HPLM + 10% dialyzed FBS, 0.00702 µM	104	106	89.1
HPLM + 10% dialyzed FBS, 0.0211 µM	90.7	91.8	77
HPLM + 10% dialyzed FBS, 0.0632 µM	119	93	72.8
HPLM + 10% dialyzed FBS, 0.19 µM	108	90.2	73.6
HPLM + 10% dialyzed FBS, 0.569 µM	117	70.7	66.3
HPLM + 10% dialyzed FBS, 1.71 µM	98.5	64	57.7
HPLM + 10% dialyzed FBS, 5.12 µM	95.2	66	60.3
HPLM + 10% dialyzed FBS, 15.4 µM	91.9	65.2	60.3
HPLM + 10% dialyzed FBS, 46.1 µM	101	62.9	53.6
RPMI 5 mM glucose + 10% FBS, 0.000781 µM	87.2	90.3	99.8
RPMI 5 mM glucose + 10% FBS, 0.00234 µM	92.5	100	39.1
RPMI 5 mM glucose + 10% FBS, 0.00702 µM	90.4	107	96.1
RPMI 5 mM glucose + 10% FBS, 0.0211 µM	88.7	106	95.7
RPMI 5 mM glucose + 10% FBS, 0.0632 µM	97.4	82.4	89.1
RPMI 5 mM glucose + 10% FBS, 0.19 µM	110	76.3	83.2
RPMI 5 mM glucose + 10% FBS, 0.569 µM	88.7	59.2	67.5
RPMI 5 mM glucose + 10% FBS, 1.71 µM	92.5	53	61.8
RPMI 5 mM glucose + 10% FBS, 5.12 µM	98.5	52	65.2
RPMI 5 mM glucose + 10% FBS, 15.4 µM	87.8	50.4	58.4
RPMI 5 mM glucose + 10% FBS, 46.1 µM	93.6	51.5	55.4
RPMI 5 mM glucose + 10% dialyzed FBS, 0.000781 µM	96.7	90.2	79.7
RPMI 5 mM glucose + 10% dialyzed FBS, 0.00234 µM	91.4	98.8	37.8
RPMI 5 mM glucose + 10% dialyzed FBS, 0.00702 µM	90.9	97.8	82.4
RPMI 5 mM glucose + 10% dialyzed FBS, 0.0211 µM	90.4	92.4	81.8
RPMI 5 mM glucose + 10% dialyzed FBS, 0.0632 µM	94.2	76.6	80
RPMI 5 mM glucose + 10% dialyzed FBS, 0.19 µM	92.9	72.8	88.1
RPMI 5 mM glucose + 10% dialyzed FBS, 0.569 µM	106	56.6	68.4
RPMI 5 mM glucose + 10% dialyzed FBS, 1.71 µM	109	49.8	51.9
RPMI 5 mM glucose + 10% dialyzed FBS, 5.12 µM	104	45.4	53.9
RPMI 5 mM glucose + 10% dialyzed FBS, 15.4 µM	85.6	40.9	49.8
RPMI 5 mM glucose + 10% dialyzed FBS, 46.1 µM	103	42.1	53.4

AUC of viability dose-response curve
Conditions	NOMO1 [4]	P12-Ichikawa [5]	SEM cells [6]
HPLM + 10% dialyzed FBS	474	391	313
RPMI 5 mM glucose + 10% FBS	445	357	353
RPMI 5 mM glucose + 10% dialyzed FBS	454	331	318

CC(C)C1=C(O)C=C(O)C(=C1)C/2=N/NC(=O)N2C3=CC4=C(C=C3)[N](C)C=C4
cell viability [%]
Conditions	NOMO1 [1]	P12-Ichikawa [2]	SEM cells [3]
HPLM + 10% dialyzed FBS, 0.000781 µM	134	119	–
HPLM + 10% dialyzed FBS, 0.00234 µM	116	118	–
HPLM + 10% dialyzed FBS, 0.00702 µM	123	118	–
HPLM + 10% dialyzed FBS, 0.0211 µM	130	117	–
HPLM + 10% dialyzed FBS, 0.0632 µM	118	116	–
HPLM + 10% dialyzed FBS, 0.19 µM	29.5	78.1	–
HPLM + 10% dialyzed FBS, 0.569 µM	23.4	51.7	–
HPLM + 10% dialyzed FBS, 1.71 µM	23.2	54.2	–
HPLM + 10% dialyzed FBS, 5.12 µM	20.7	49	–
HPLM + 10% dialyzed FBS, 15.4 µM	21	47.4	–
HPLM + 10% dialyzed FBS, 46.1 µM	15.8	45.3	–
RPMI 5 mM glucose + 10% FBS, 0.000781 µM	106	119	123
RPMI 5 mM glucose + 10% FBS, 0.00234 µM	101	123	112
RPMI 5 mM glucose + 10% FBS, 0.00702 µM	107	125	116
RPMI 5 mM glucose + 10% FBS, 0.0211 µM	112	112	101
RPMI 5 mM glucose + 10% FBS, 0.0632 µM	105	110	72.5
RPMI 5 mM glucose + 10% FBS, 0.19 µM	19.6	51	22.7
RPMI 5 mM glucose + 10% FBS, 0.569 µM	16.3	41	25.2
RPMI 5 mM glucose + 10% FBS, 1.71 µM	15.3	41.3	20
RPMI 5 mM glucose + 10% FBS, 5.12 µM	16.8	41.8	23.6
RPMI 5 mM glucose + 10% FBS, 15.4 µM	16.3	41.6	20.7
RPMI 5 mM glucose + 10% FBS, 46.1 µM	13.3	38.6	15.4
RPMI 5 mM glucose + 10% dialyzed FBS, 0.000781 µM	120	112	113
RPMI 5 mM glucose + 10% dialyzed FBS, 0.00234 µM	117	123	112
RPMI 5 mM glucose + 10% dialyzed FBS, 0.00702 µM	130	127	111
RPMI 5 mM glucose + 10% dialyzed FBS, 0.0211 µM	118	122	114
RPMI 5 mM glucose + 10% dialyzed FBS, 0.0632 µM	95.9	116	75.2
RPMI 5 mM glucose + 10% dialyzed FBS, 0.19 µM	32.6	48.7	34.2
RPMI 5 mM glucose + 10% dialyzed FBS, 0.569 µM	22.3	45.6	29.6
RPMI 5 mM glucose + 10% dialyzed FBS, 1.71 µM	19.6	42.6	23.8
RPMI 5 mM glucose + 10% dialyzed FBS, 5.12 µM	20	44.4	25
RPMI 5 mM glucose + 10% dialyzed FBS, 15.4 µM	16.9	41.5	25.3
RPMI 5 mM glucose + 10% dialyzed FBS, 46.1 µM	17.6	39	22

AUC of viability dose-response curve
Conditions	NOMO1 [4]	P12-Ichikawa [5]	SEM cells [6]
HPLM + 10% dialyzed FBS	259	335	248
RPMI 5 mM glucose + 10% FBS	254	304	241
RPMI 5 mM glucose + 10% dialyzed FBS	250	307	259
